From US20120035161A1, “Novel Compositions and Methods of Treating Diseases Using the Same” (CORRIDOR PHARMACEUTICALS, INC., priority 2006, published 2012)

How the values were obtained:
[1] = test system: Serotonin (5-Hydroxytryptamine) 5-HT1, Non-Selective; assay: Assay 271000 radioligand binding, 5-HT1 non-selective; design: species or system Wistar Rat
Method: (§1) The methods employed in this study have been adapted from the scientific literature to maximize reliability and reproducibility. Reference standards were run as an integral part of each assay to ensure the validity of the results obtained. Assays were performed under conditions as described below. Where presented, IC50 values were determined by a non-linear, least squares regression analysis using the Data Analysis Toolbox (MDL Information Systems, San Leandro, Calif., USA). Where inhibition constants (Ki) are presented, the Ki values were calculated using the equation of Cheng and Prusoff (Cheng, Y., Prusoff, W. H., Biochem. Pharmacol. 22:3099-3108, 1973) using the observed IC50 of the tested compound, the concentration of radioligand employed in the assay, and historical values for the KD of the ligand. Where presented, the Hill coefficient (nu), defining the slope of the competitive binding curve, was calculated using the Data Analysis Toolbox.

[2] = target: T1, Serotonin (5-Hydroxytryptamine) 5-HT1A (Homo sapiens, UniProt P08908); assay: Radioligand binding, 5-HT1A ([3H] 8-OH-DPAT)
T1 construct: expressed in transfected cells; host or cells: CHO cells
T1 sequence (P08908 1-422): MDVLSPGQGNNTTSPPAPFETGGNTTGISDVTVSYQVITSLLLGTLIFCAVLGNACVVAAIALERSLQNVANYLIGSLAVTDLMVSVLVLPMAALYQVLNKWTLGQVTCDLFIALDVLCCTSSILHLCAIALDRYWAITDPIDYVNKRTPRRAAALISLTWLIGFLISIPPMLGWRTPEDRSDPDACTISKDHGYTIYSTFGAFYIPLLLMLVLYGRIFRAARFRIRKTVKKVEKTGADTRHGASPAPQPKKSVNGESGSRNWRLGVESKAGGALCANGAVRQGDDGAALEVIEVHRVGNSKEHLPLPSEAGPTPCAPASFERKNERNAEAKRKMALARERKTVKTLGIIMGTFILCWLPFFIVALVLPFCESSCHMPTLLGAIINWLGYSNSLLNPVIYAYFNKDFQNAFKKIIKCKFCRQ
Method: as §1

[3] = test system: Aspergillus fumigatus-based mouse asthma model; assay: Aspergillus fumigatus-based mouse asthma model, lung resistance; assay type: in vivo; conditions: 20 mg/ml, intraperitoneally; for Lung resistance: A. fumigatus insult, day 29
Method: Compounds of the invention were also tested for efficiacy in an asthma model.
A cohort of mice was administered intraperitoneal injections of Aspergillus fumigatus on days 0, 14, 26, 27, and 28. Lung resistance was tested on day 29 immediately following a tracheotomy/methacholine procedure. Animals receiving dexamethasone were administered dexamethasone on days 26, 27 and 28. Animals receiving a compound of the invention were administered the compound just hours before the lung resistance test. As a control, all test compounds, as well as dexamethasone, were also administered to mice in the absence of an A. fumigatus insult.

[4] = target: T2, Serotonin (5-Hydroxytryptamine) 5-HT1B (Rattus norvegicus, UniProt P28564); assay: Assay 271200 radioligand binding, 5-HT1B; design: species or system Wistar Rat
T2 construct: from tissue
Method: as §1

[5] = test system: rheumatoid arthritis (RA) animal model; assay: Clinical arthritis score in mice sensitized with collagen injections; assay type: in vivo
Method: FIGS. 26-28 illustrate the effect of various compounds of the invention on the clinical arthritis score of mice treated with various compounds of the invention.
Additional testing of the effectiveness of compounds ICI-685, ICI-735 and ICI-847 at higher and lower concentrations were conducted, as illustrated in FIG. 29.

[6] = test system: Serotonin (5-Hydroxytryptamine) 5-HT2, Non-Selective; assay: Assay 271600 radioligand binding, 5-HT2 non-selective; design: species or system Wistar Rat
Method: as §1

TNF-α = assay: Model of LPS-mediated cytokine production, serum TNF-α; assay type: in vivo, CD1:ICR mice; conditions: 10 mg/kg
Method: (§2) Both ICI-685 and ICI-735 were formulated in water. For the time course study, both drugs were formulated at a concentration of 1 mg/ml and dosed 10 ml/kg to produce a dose of 10 mg/kg. For the dose-response study, drug was formulated at concentrations of 0.05, 0.2 and 0.5 mg/ml and dosed at a volume of 10 ml/kg to produce doses of 0.5, 2 and 5 mg/kg, respectively. Animals were dosed IV or IP.
CD1:ICR mice were obtained from Harlan (Indianapolis, Ind.) at 6 weeks of age. Animals were housed 5 per cage, kept on a 12 hr light dark cycle and fed food and water ad libitum. Animals were tested at 8-10 weeks of age.
(§3) Lipopolysaccharide (heat killed E. coli 0127:B5; Sigma Aldrich) was prepared in distilled water at a concentration of 0.025 mg/ml. LPS was dosed at a volume of 10 ml/kg (IP) to produce a final dose of 0.25 mg/kg (approximately 7.5 μg/mouse). Drugs were dosed prior to LPS administration as indicated elsewhere herein. Blood was collected by retro-orbital eye bleed 90 minutes after LPS administration, Serum was prepared from blood and TNF-α and IL-1β levels were measured by using the OPT-EIA mouse TNF-α and IL-1β ELISA kits (BD Biosciences) as per directions of the manufacturer.
The first study was designed to determine the optimal route of administration and the optimal pre-treatment time. Two pre-dose time course studies were conducted. The first (Study 1A) was conducted with 3 pre-dose time points (2, 6 and 18 hrs). The second was conducted at 0, 1 and 2 hr predose time points. For both studies, drug was dosed IP or IV.
Using data from the first study, a second study was conducted that was designed to measure dose-response activity of each compound. Compounds were tested at doses of […]., 2.0 and 5 mg/kg using the route and pre-treatment time that produced the best activity.
as §2, with “Compounds ICI-715, ICI-824, ICI-953” for “Both ICI-685”, “ICI-954” for “ICI-735”, “study,” for “study, both”, “drugs were” for “drug was”
as §3, with “mg/ml,” for “mg/ml.”, “[…]).” for “μg/mouse).”, “above.” for “elsewhere herein.”, “administration.” for “administration,”
The first study was designed to determine the optimal route of administration and the optimal pre-treatment time. One pre-dose time course was conducted (for all compounds) with compounds administered at 0, 1 and 2 hrs prior to LPS treatment. For both studies, drug was dosed IP or IV. The IP study and IV study were conducted on separate days.
Using data from the first study, a second study was conducted that was designed to measure dose-response activity of each compound. Compounds were tested at doses of 0.5, 2.0 and 5 mg/kg using the route and pre-treatment time that produced the best activity.

T2 sequence (P28564 whole entry): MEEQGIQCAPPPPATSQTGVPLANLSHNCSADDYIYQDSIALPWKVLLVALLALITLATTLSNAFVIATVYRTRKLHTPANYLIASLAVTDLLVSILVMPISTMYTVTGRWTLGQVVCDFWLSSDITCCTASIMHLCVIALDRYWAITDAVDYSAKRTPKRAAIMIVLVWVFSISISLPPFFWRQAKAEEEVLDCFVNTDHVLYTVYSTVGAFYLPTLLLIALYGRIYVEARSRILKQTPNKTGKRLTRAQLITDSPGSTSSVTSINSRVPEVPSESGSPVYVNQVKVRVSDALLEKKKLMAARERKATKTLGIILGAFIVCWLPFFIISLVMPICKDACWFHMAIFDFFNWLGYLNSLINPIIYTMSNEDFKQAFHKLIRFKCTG

% INHIBITION ([1]; 0.1 μM)	% INHIBITION ([1]; 10 μM)	inhibition at 0.1 µM [2]	inhibition at 10 µM [2]	inhibition at 0.1 µM [4]	inhibition at 10 µM [4]	% INHIBITION ([6]; 0.1 μM)	% INHIBITION ([6]; 10 μM)	SMILES	Lung resistance [3]	decreasing lung resistance compared with dexamethasone [3]	effectiveness at treating RA compared with dexamethasone ([5]; 30 mg/kg, FIG. 29)	clinical arthritis score compared with dexamethasone ([5]; orally 10 mg/kg daily, about 21 days, FIG. 26)	inhibition at 10 mg/kg (TNF-α; Mus musculus, second pre-dose time course study, read-out: inhibition of TNFα)	inhibition of TNFα levels (TNF-α; first time course, 2 hr pretreatment period, IV administration)	inhibition of LPS-stimulated TNFα secretion (TNF-α; pre-dose time course, IV or IP)
−11%	−7%	-8%	74%	-5%	-33%	3%	82%	NCCCN1CCC(CCCN2c3ccccc3Sc3ccc(C(F)(F)F)cc32)CC1 [ICI-847]	7.25 cm H2O/ml/s	at least as effective as dexamethasone	as effective for the length of the study as is dexamethasone	as effective as dexamethasone			
−3%	32%	1%	26%	6%	10%	31%	82%	FC(F)(F)c1ccc2c(c1)N(CCCN1CCNCC1)c1ccccc1S2 [ICI-685]	12 cm H2O/ml/s				70%	did not inhibit	inhibited
								C[C@@H]1C[C@H]2[C@@H]3CCC4=CC(=O)C=C[C@]4(C)[C@@]3(F)[C@@H](O)C[C@]2(C)[C@@]1(O)C(=O)CO [Dexamethasone, reference compound]	7.75 cm H2O/ml/s						
